# Measurements published in patent US11976061B2, “Preparation of benzimidazolone derivatives as novel diacylglyceride O-acyltransferase 2 inhibitors” (Merck Sharp & Dohme LLC, priority 2020, dated 2024).
# Where two headings read alike, the source gives them in different places.
# Biological target: T1, human DGAT2 (hDGAT2) (Homo sapiens, UniProt Q96PD7)
# T1 construct: made in house; host or cells: Sf-9 insect cells (baculovirus), membrane fraction
# T1 sequence (Q96PD7 1-388): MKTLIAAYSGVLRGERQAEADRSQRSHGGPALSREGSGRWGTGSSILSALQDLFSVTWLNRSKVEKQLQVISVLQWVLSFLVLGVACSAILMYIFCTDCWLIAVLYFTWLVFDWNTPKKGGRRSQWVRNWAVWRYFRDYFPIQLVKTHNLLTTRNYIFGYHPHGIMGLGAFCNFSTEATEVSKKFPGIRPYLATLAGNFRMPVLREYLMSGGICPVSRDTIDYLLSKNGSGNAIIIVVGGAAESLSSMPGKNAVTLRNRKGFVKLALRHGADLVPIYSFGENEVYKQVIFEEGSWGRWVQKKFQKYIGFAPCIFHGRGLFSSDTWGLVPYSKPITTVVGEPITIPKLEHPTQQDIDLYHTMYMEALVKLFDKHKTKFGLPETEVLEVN
# Assay: DGAT2 Enzymatic Activity Assay
# Type: biochemical
# Details: membrane prep of Sf-9 cells expressing hDGAT2, 25 μM diolein, 5 μM 13C oleoyl-CoA, 13C18-triolein by LC/MS/MS
# Description: Insect Cell Expression and Membrane Preparation
# Sf-9 insect cells were maintained in Grace's insect cell culture medium with 10% heated-inactivated fetal bovine serum, 1% Pluronic F-68 and 0.14 μg/ml Kanamycine sulfate at 27° C. in a shaker incubator. After infection with untagged baculovirus expressing human DGAT2 (hDGAT2) at multiplicity of infection (MOI) 3 for 48 hours, cells were harvested. Cell pellets were suspended in buffer containing 10 mM Tris-HCl pH 7.5, 1 mM EDTA, 250 mM sucrose and Complete Protease Inhibitor Cocktail (Sigma Aldrich), and sonicated on ice. Cell debris were removed by centrifugation at 2000×g for 15 minutes. Membrane fractions were isolated by ultracentrifugation (100,000×g), resuspended in the same buffer, and frozen (−80° C.) for later use. The protein concentration was determined with the Pierce™ BCA Protein Assay Kit (Thermo Fisher Scientific). Expression of protein levels was analyzed by immunoblotting with rabbit anti-DGAT2 antibody (Abcam, ab102831) and donkey anti-rabbit IgG H&L Alexa Fluor® 647 (Abcam, ab150075) followed by detection using Typhoon FLA9000 (GE Healthcare).
# LC/MS/MS analyses were performed using Thermal Fisher's LX4-TSQ Vantage system. This system consists of an Agilent binary high-performance liquid chromatography (HPLC) pump and a TSQ Vantage triple quadrupole MS/MS instrument. For each sample, 2 μL samples from the top organic layer of in-plate liquid-liquid extraction were injected onto a Thermo Betabasic C4 column (2.1 mm×20 mm, 5 μm particle size). The samples were then eluted using the following conditions; mobile phase: Isopropanol:acetonitrile/10 mM ammonium formate=50/35/15 (v/v/v), flow rate: 0.8 mL/min, temperature: 25° C. Data was acquired in positive mode using a heated electrospray ionization (HESI) interface. The operational parameters for the TSQ Vantage MS/MS instrument were a spray voltage of 3000 V, capillary temperature of 280° C., vaporizer temperature 400° C., sheath gas 45 arbitrary unit, Aux gas 10 arbitrary units, S-lens 165 and collision gas 1.0 mTorr. […] (SRM) chromatograms of ^13C18-triolein (Q1: 920.8>Q3: 621.3) and internal standard ^13C21-triolein (Q1: 923.8>Q3: 617.3) were collected for 33 sec. The peak area was integrated by Xcalibur Quan software. The ratio between the ^13C18triolein generated in the reaction and spiked in internal standard ^13C21-triolein was used to generate percentage inhibition and IC50 values. Compound percentage inhibition was calculated by the following formula: Inhibition %=1−[(compound response−low control)/(high control−low control)]×100%. Potent compounds were titrated and IC50 were calculated by 4 parameter sigmoidal curve fitting formula.
# DGAT2 Enzymatic Activity Assay
# DGAT2 activity was determined by measuring the amount of enzymatic product ^13C18-triolein (^13C-1,2,3-Tri(cis-9-octadecenoyl)glycerol) using the membrane prep mentioned above. The assay was carried out in ABgene 384-well assay plates in a final volume of 25 μL at rt. The assay mixture contained the following: assay buffer (100 mM Tris·Cl, pH 7.0, 20 mM MgCl2, 5% ethanol), 25 μM of diolein, 5 μM of ^13C oleoyl-CoA and 8 ng/μL of DGAT2 membrane.
smiles,measurement,setting,value
"CC(n1c(=O)n(-c2cc(OC(F)F)ccc2F)c2ccc(C(=O)NC3(C)CS(=O)(=O)C3)cc21)C(C)(C)O (single isomer, unassigned) [EX-65a, 1-(5-(difluoromethoxy)-2-fluorophenyl)-3-(3-hydroxy-3-methylbutan-2-yl)-N-(3-methyl-1,1-dioxidothietan-3-yl)-2-oxo-2,3-dihydro-1H-benzo[d]imidazole-5-carboxamide]",IC50,read-out: Human DGAT2 IC50,53 nM
"CC(n1c(=O)n(-c2cc(OC(F)F)ccc2F)c2ccc(C(=O)NC3(C)CS(=O)(=O)C3)cc21)C(C)(C)O (single isomer, unassigned) [EX-65b, 1-(5-(difluoromethoxy)-2-fluorophenyl)-3-(3-hydroxy-3-methylbutan-2-yl)-N-(3-methyl-1,1-dioxidothietan-3-yl)-2-oxo-2,3-dihydro-1H-benzo[d]imidazole-5-carboxamide]",IC50,read-out: Human DGAT2 IC50,0.7 nM
"CC(C(N)=O)n1c(=O)n(-c2cccc(OC(F)F)c2)c2ccc(C(=O)NC3(C)CCS(=O)(=O)CC3)cc21 (single isomer, unassigned) [EX-85a, 3-(1-amino-1-oxopropan-2-yl)-1-(3-(difluoromethoxy)phenyl)-N-(4-methyl-1,1-dioxidotetrahydro-2H-thiopyran-4-yl)-2-oxo-2,3-dihydro-1H-benzo[d]imidazole-5-carboxamide]",IC50,read-out: Human DGAT2 IC50,551 nM
"CC(C(N)=O)n1c(=O)n(-c2cccc(OC(F)F)c2)c2ccc(C(=O)NC3(C)CCS(=O)(=O)CC3)cc21 (single isomer, unassigned) [EX-85b, 3-(1-amino-1-oxopropan-2-yl)-1-(3-(difluoromethoxy)phenyl)-N-(4-methyl-1,1-dioxidotetrahydro-2H-thiopyran-4-yl)-2-oxo-2,3-dihydro-1H-benzo[d]imidazole-5-carboxamide]",IC50,read-out: Human DGAT2 IC50,1750 nM
"CC(C(F)F)n1c(=O)n(-c2cccc(OC(F)F)c2)c2ccc(C(=O)NC3(C)CCS(=O)(=O)CC3)cc21 (single isomer, unassigned) [Example 45a, 1-(3-(Difluoromethoxy)phenyl)-3-(1,1-difluoropropan-2-yl)-N-(4-methyl-1,1-dioxidotetrahydro-2H-thiopyran-4-yl)-2-oxo-2,3-dihydro-1H-benzo[d]imidazole-5-carboxamide]",IC50,read-out: DGAT2 IC50,12 nM
"CC(C(F)F)n1c(=O)n(-c2cccc(OC(F)F)c2)c2ccc(C(=O)NC3(C)CCS(=O)(=O)CC3)cc21 (single isomer, unassigned) [Example 45b, 1-(3-(Difluoromethoxy)phenyl)-3-(1,1-difluoropropan-2-yl)-N-(4-methyl-1,1-dioxidotetrahydro-2H-thiopyran-4-yl)-2-oxo-2,3-dihydro-1H-benzo[d]imidazole-5-carboxamide]",IC50,read-out: DGAT2 IC50,101 nM
"CCC(C)n1c(=O)n(-c2cccc(OC(F)F)c2)c2ccc(C(=O)NC3(C)CS(=O)(=O)C3)cc21 (single isomer, unassigned) [Example 46a, 3-(sec-butyl)-1-(3-(difluoromethoxy)phenyl)-N-(3-methyl-1,1-dioxidothietan-3-yl)-2-oxo-2,3-dihydro-1H-benzo[d]imidazole-5-carboxamide]",IC50,read-out: DGAT2 IC50,81 nM
"CCC(C)n1c(=O)n(-c2cccc(OC(F)F)c2)c2ccc(C(=O)NC3(C)CS(=O)(=O)C3)cc21 (single isomer, unassigned) [Example 46b, 3-(sec-butyl)-1-(3-(difluoromethoxy)phenyl)-N-(3-methyl-1,1-dioxidothietan-3-yl)-2-oxo-2,3-dihydro-1H-benzo[d]imidazole-5-carboxamide]",IC50,read-out: DGAT2 IC50,92 nM
"CC(n1c(=O)n(-c2cc(OC(F)F)ccc2F)c2ccc(C(=O)NC3(C)CCS(=O)(=O)CC3)cc21)C(C)(C)O (single isomer, unassigned) [Example 66a, 1-(5-(difluoromethoxy)-2-fluorophenyl)-3-(3-hydroxy-3-methylbutan-2-yl)-N-(4-methyl-1,1-dioxidotetrahydro-2H-thiopyran-4-yl)-2-oxo-2,3-dihydro-1H-benzo[d]imidazole-5-carboxamide]",IC50,read-out: DGAT2 IC50,1.1 nM
"CC(n1c(=O)n(-c2cc(OC(F)F)ccc2F)c2ccc(C(=O)NC3(C)CCS(=O)(=O)CC3)cc21)C(C)(C)O (single isomer, unassigned) [Example 66b, 1-(5-(difluoromethoxy)-2-fluorophenyl)-3-(3-hydroxy-3-methylbutan-2-yl)-N-(4-methyl-1,1-dioxidotetrahydro-2H-thiopyran-4-yl)-2-oxo-2,3-dihydro-1H-benzo[d]imidazole-5-carboxamide]",IC50,read-out: DGAT2 IC50,16.9 nM
"CC(n1c(=O)n(-c2cccc(OC(F)F)c2)c2ccc(C(=O)NC3(C)CCS(=O)(=O)CC3)cc21)C(C)(C)O (single isomer, unassigned) [Example 67a, 1-(3-(difluoromethoxy)phenyl)-3-(3-hydroxy-3-methylbutan-2-yl)-N-(4-methyl-1,1-dioxidotetrahydro-2H-thiopyran-4-yl)-2-oxo-2,3-dihydro-1H-benzo[d]imidazole-5-carboxamide]",IC50,read-out: DGAT2 IC50,1.6 nM
"CC(n1c(=O)n(-c2cccc(OC(F)F)c2)c2ccc(C(=O)NC3(C)CCS(=O)(=O)CC3)cc21)C(C)(C)O (single isomer, unassigned) [Example 67b, 1-(3-(difluoromethoxy)phenyl)-3-(3-hydroxy-3-methylbutan-2-yl)-N-(4-methyl-1,1-dioxidotetrahydro-2H-thiopyran-4-yl)-2-oxo-2,3-dihydro-1H-benzo[d]imidazole-5-carboxamide]",IC50,read-out: DGAT2 IC50,211 nM
"CC(n1c(=O)n(-c2cccc(OCC(F)F)c2)c2ccc(C(=O)NC3(C)CCS(=O)(=O)CC3)cc21)C(C)(C)O (single isomer, unassigned) [Example 68a, 1-(3-(2,2-difluoroethoxy)phenyl)-3-(3-hydroxy-3-methylbutan-2-yl)-N-(4-methyl-1,1-dioxidotetrahydro-2H-thiopyran-4-yl)-2-oxo-2,3-dihydro-1H-benzo[d]imidazole-5-carboxamide]",IC50,read-out: DGAT2 IC50,4.1 nM
"CC(n1c(=O)n(-c2cccc(OCC(F)F)c2)c2ccc(C(=O)NC3(C)CCS(=O)(=O)CC3)cc21)C(C)(C)O (single isomer, unassigned) [Example 68b, 1-(3-(2,2-difluoroethoxy)phenyl)-3-(3-hydroxy-3-methylbutan-2-yl)-N-(4-methyl-1,1-dioxidotetrahydro-2H-thiopyran-4-yl)-2-oxo-2,3-dihydro-1H-benzo[d]imidazole-5-carboxamide]",IC50,read-out: DGAT2 IC50,1.8 nM
"CCOc1cc(-n2c(=O)n(C(C)C(C)(C)O)c3cc(C(=O)NC4(C)CCS(=O)(=O)CC4)ccc32)c(F)cn1 (single isomer, unassigned) [Example 69a, 1-(2-ethoxy-5-fluoropyridin-4-yl)-3-(3-hydroxy-3-methylbutan-2-yl)-N-(4-methyl-1,1-dioxidotetrahydro-2H-thiopyran-4-yl)-2-oxo-2,3-dihydro-1H-benzo[d]imidazole-5-carboxamide]",IC50,read-out: DGAT2 IC50,9.7 nM
"CCOc1cc(-n2c(=O)n(C(C)C(C)(C)O)c3cc(C(=O)NC4(C)CCS(=O)(=O)CC4)ccc32)c(F)cn1 (single isomer, unassigned) [Example 69b, 1-(2-ethoxy-5-fluoropyridin-4-yl)-3-(3-hydroxy-3-methylbutan-2-yl)-N-(4-methyl-1,1-dioxidotetrahydro-2H-thiopyran-4-yl)-2-oxo-2,3-dihydro-1H-benzo[d]imidazole-5-carboxamide]",IC50,read-out: DGAT2 IC50,3.9 nM
